Data as given in patent US20100285957A1, “THIAZOLYLOXYPHENYLAMIDINES OR THIADIAZOLYLOXYPHENYLAMIDINES AND THEIR USE AS FUNGICIDES” (Bayer CropScience AG, priority 2007, published 2010).
Read-outs that look alike come from different tables or passages of the source.

Columns and labels:
Sphaerotheca fuliginea = experiment: Sphaerotheca test (cucumber)/protective; format: in vivo; settings: Podosphaera fuliginea, 168 h, 100 ppm active substance, protective, evaluation 7 days after inoculation, read-out: degree of effectiveness
Procedure: Sphaerotheca Test (Cucumber)/Protective [table] To prepare a suitable active substance composition, 1 part by weight of active substance is mixed with the given amounts of solvents and emulsifier and the concentrate is diluted to the desired concentration using water. For the testing of protective effectiveness, young plants are sprayed with the active substance composition in the application rate given. After the spray coating has been dried on, the plants are inoculated with an aqueous suspension of spores of Sphaerotheca fuliginea. The plants are then placed in a greenhouse at approximately 23° C. and a relative humidity of approximately 70%. Evaluation is carried out 7 days after the inoculation. In this connection, 0% means a degree of effectiveness corresponding to that of the control, while a degree of effectiveness of 100% means that no infestation is observed.

Pyrenophora teres = Pyrenophora teres test (barley)/protective; format: in vivo; settings: 500 ppm active substance, protective, evaluation 7-9 days after inoculation, read-out: degree of effectiveness
Procedure: Pyrenophora teres Test (Barley)/Protective
(§1) To prepare a suitable active substance composition, 1 part by weight of active substance is mixed with the given amounts of solvent and emulsifier and the concentrate is diluted to the desired concentration using water.
For the testing of protective effectiveness, young barley plants are sprayed with the active substance composition in the application rate given. 1 day after the treatment, the plants are inoculated with an aqueous suspension of the spores of Pyrenophora teres and then remain at 100% relative humidity and 20° C. for 48 h. Subsequently, the plants are placed in a greenhouse at 80% relative humidity and a temperature of 20° C.
Evaluation is carried out 7-9 days after the inoculation. In this connection, 0% means a degree of effectiveness corresponding to that of the control, while a degree of effectiveness of 100% means that no infestation is observed.

[1] = test system: Puccinia recondita var. tritici; experiment: Puccinia test (wheat)/protective; format: in vivo; settings: 240 h, 1000 ppm active substance, protective, evaluation 10 days after inoculation, read-out: degree of effectiveness
Procedure: Puccinia Test (Wheat)/Protective
as §1
For the testing of protective effectiveness, young plants are sprayed with the active substance composition in the application rate given. After the spray coating has been dried on, the plants are sprayed with a suspension of the conidia of Puccinia recondita var. tritici. The plants remain in an incubation chamber at 20° C. and 100% relative humidity for 48 hours.
The plants are then placed in a greenhouse at a temperature of approximately 20° C. and a relative humidity of 80%, in order to encourage the development of rust pustules.
Evaluation is carried out 10 days after the inoculation. In this connection, 0% means a degree of effectiveness corresponding to that of the control, while a degree of effectiveness of 100% means that no infestation is observed.

[2] = test system: Blumeria graminis f.sp. hordei; experiment: Blumeria graminis test (barley)/protective; format: in vivo; settings: 168 h, 1000 ppm active substance, protective, evaluation 7 days after inoculation, read-out: degree of effectiveness
Procedure: Blumeria graminis Test (Barley)/Protective
as §1
For the testing of protective effectiveness, young plants are sprayed with the active substance composition in the application rate given.
After the spray coating has been dried on, the plants are dusted with spores of Blumeria graminis f.sp. hordei.
The plants are placed in a greenhouse at a temperature of approximately 20° C. and a relative humidity of approximately 80%, in order to encourage the development of mildew pustules.
Evaluation is carried out 7 days after the inoculation. In this connection, 0% means a degree of effectiveness corresponding to that of the control, while a degree of effectiveness of 100% means that no infestation is observed.

Uromyces appendiculatus = experiment: Uromyces test (beans)/protective; format: in vivo; settings: 240 h, 100 ppm active substance, protective, evaluation 10 days after inoculation, read-out: degree of effectiveness
Procedure: Uromyces Test (Beans)/Protective [table] To prepare a suitable active substance composition, 1 part by weight of active substance is mixed with the given amounts of solvents and emulsifier and the concentrate is diluted to the desired concentration using water. For the testing of protective effectiveness, young plants are sprayed with the active substance composition in the application rate given. After the spray coating has been dried on, the plants are inoculated with an aqueous suspension of the spores of the bean rust pathogen Uromyces appendiculatus and then remain in an incubation chamber at approximately 20° C. and 100% relative humidity for 1 day. The plants are then placed in a greenhouse at approximately 21° C. and a relative humidity of approximately 90%. Evaluation is carried out 10 days after the inoculation. In this connection, 0% means a degree of effectiveness corresponding to that of the control, while a degree of effectiveness of 100% means that no infestation is observed.

Alternaria solani = experiment: Alternaria test (tomato)/protective; format: in vivo; settings: 168 h, 500 ppm active substance, protective, evaluation 7 days after inoculation, read-out: degree of effectiveness
Procedure: Alternaria Test (Tomato)/Protective [table] To prepare a suitable active substance composition, 1 part by weight of active substance is mixed with the given amounts of solvent and emulsifier and the concentrate is diluted to the desired concentration using water. For the testing of protective effectiveness, young tomato plants are sprayed with the active substance composition in the application rate given. 1 day after the treatment, the plants are inoculated with a suspension of the spores of Alternaria solani and then stand at 100% relative humidity and 20° C. for 24 h. Subsequently, the plants stand at 96% relative humidity and a temperature of 20° C. Evaluation is carried out 7 days after the inoculation. In this connection, 0% means a degree of effectiveness corresponding to that of the control, while a degree of effectiveness of 100% means that no infestation is observed.

| SMILES | logP (physchem; pH 2.3) | pest or weed control at 100 ppm (Sphaerotheca fuliginea) | pest or weed control at 500 ppm (Pyrenophora teres) | pest or weed control at 1000 ppm [1] | pest or weed control at 1000 ppm [2] | pest or weed control at 100 ppm (Uromyces appendiculatus) | pest or weed control at 500 ppm (Alternaria solani) | logP (physchem) |
| --- | --- | --- | --- | --- | --- | --- | --- | --- |
| Cc1cc(Oc2nc(C3(C)CC3)ns2)c(C)cc1N [2,5-Dimethyl-4-{[3-(1-methylcyclopropyl)-1,2,4-thiadiazol-5-yl]oxy}aniline] | 3.08 |  |  |  |  |  |  |  |
| Cc1cc(Oc2nc(C3(Cl)CC3)ns2)c(C)cc1/N=C/N1CCCCC1 [Compound 13, 4-{[3-(1-Chlorocyclopropyl)-1,2,4-thiadiazol-5-yl]oxy}-2,5-dimethyl-N-[(1E)-piperidin-1-yl-methylidene]aniline] | 1.76 | ≥ 70% | ≥ 70% | ≥ 70% | ≥ 70% |  |  |  |
| Cc1cc(Oc2nc(C3CC3C)ns2)c(C)cc1/N=C/N1CCCCC1 (stereo not drawn) [Compound 16, 2,5-Dimethyl-4-{[3-(2-methylcyclopropyl)-1,2,4-thiadiazol-5-yl]oxy}-N-[(1E)-piperidin-1-ylmethylidene]aniline] | 1.78 | ≥ 70% | ≥ 70% | ≥ 70% | ≥ 70% | ≥ 70% | ≥ 70% |  |
| Cc1cc(Oc2nc(C3(Cl)CC3)ns2)c(C)cc1N=CN(C)C(C)C [Compound 18, N′-(4-{[3-(1-Chlorocyclopropyl)-1,2,4-thiadiazol-5-yl]oxy}-2,5-dimethylphenyl)-N-methyl-N-(1-methylethyl)imidoformamide] | 2.01 | ≥ 70% | ≥ 70% | ≥ 70% | ≥ 70% | ≥ 70% | ≥ 70% |  |
| Cc1cc(Oc2nc(C3(Cl)CC3)ns2)c(C)cc1N=CN(C)C [Compound 19, N′-(4-{[3-(1-Chlorocyclopropyl)-1,2,4-thiadiazol-5-yl]oxy}-2,5-dimethylphenyl)-N,N-dimethylimidoformamide] | 1.52 | ≥ 70% | ≥ 70% | ≥ 70% | ≥ 70% | ≥ 70% | ≥ 70% |  |
| Cc1cc(Oc2nc(C3CC3C)ns2)c(C)cc1N=CN(C)C (stereo not drawn) [Compound 20, N′-(2,5-Dimethyl-4-{[3-(2-methylcyclopropyl)-1,2,4-thiadiazol-5-yl]oxy}phenyl)-N,N-di-methylimidoformamide] | 1.62 | ≥ 70% | ≥ 70% | ≥ 70% | ≥ 70% | ≥ 70% | ≥ 70% |  |
| CCN(C)C=Nc1cc(C)c(Oc2nc(C3(C)CC3)cs2)cc1C [Compound 22, N′-(2,5-Dimethyl-4-{[4-(1-methylcyclopropyl)-1,3-thiazol-2-yl]oxy}phenyl)-N-ethyl-N-methylimidoformamide] | 1.86 |  |  | ≥ 70% | ≥ 70% |  | ≥ 70% | 4.96 |
| Cc1cc(Oc2nc(C3(C)CC3)c(Cl)s2)c(C)cc1/N=C/N1CCCCC1 [Compound 24, 4-{[5-Chloro-4-(1-methylcyclopropyl)-1,3-thiazol-2-yl]oxy}-2,5-dimethyl-N-[(1E)-piperidin-1-ylmethylidene]aniline] | 2.34 | ≥ 70% | ≥ 70% | ≥ 70% | ≥ 70% | ≥ 70% | ≥ 70% |  |
| Cc1cc(Oc2nc(C3(C)CC3(Cl)Cl)ns2)c(C)cc1/N=C/N1CCCCC1 (stereo not drawn) [Compound 26, 4-{[3-(2,2-Dichloro-1-methylcyclopropyl)-1,2,4-thiadiazol-5-yl]oxy}-2,5-dimethyl-N-[(1E)-piperidin-1-ylmethylidene]aniline] | 2.08 | ≥ 70% | ≥ 70% |  |  | ≥ 70% | ≥ 70% |  |
| CCC1(c2nsc(Oc3cc(C)c(/N=C/N4CCCCC4)cc3C)n2)C(C)C1(Cl)Cl (stereo not drawn) [Compound 28, 4-{[3-(2,2-Dichloro-1-ethyl-3-methylcyclopropyl)-1,2,4-thiadiazol-5-yl]oxy}-2,5-dimethyl-N-[(1E)-piperidin-1-ylmethylidene]aniline] | 2.35 | ≥ 70% | ≥ 70% |  |  | ≥ 70% |  |  |
| Cc1cc(Oc2nc(C3(C)CC3)ns2)c(C)cc1/N=C/N1CCC1 [Compound 31, N-[(1E)-Azetidin-1-ylmethylidene]-2,5-dimethyl-4-{[3-(1-methylcyclopropyl)-1,2,4-thiadiazol-5-yl]oxy}aniline] | 1.6 |  |  | ≥ 70% | ≥ 70% |  |  |  |
| Cc1cc(Oc2nc(C3CC3C)ns2)c(C)cc1/N=C/N1CCC1 (stereo not drawn) [Compound 32, N-[(1E)-Azetidin-1-ylmethylidene]-2,5-dimethyl-4-{[3-(2-methylcyclopropyl)-1,2,4-thiadiazol-5-yl]oxy}aniline] | 1.96 |  |  |  |  |  |  |  |
| CCN(C)C=Nc1cc(Cl)c(Oc2nc(C3(Cl)CC3)ns2)cc1C [Compound 33, N′-(5-Chloro-4-{[3-(1-chlorocyclopropyl)-1,2,4-thiadiazol-5-yl]oxy}-2-methylphenyl)-N-ethyl-N-methylimidoformamide] | 1.72 | ≥ 70% | ≥ 70% |  |  |  | ≥ 70% |  |
| Cc1cc(Oc2nc(C3(Cl)CC3)ns2)c(Cl)cc1/N=C/N1CCCCC1 [Compound 34, 5-Chloro-4-{[3-(1-chlorocyclopropyl)-1,2,4-thiadiazol-5-yl]oxy}-2-methyl-N-[(1E)-piperidin-1-ylmethylidene]aniline] | 1.98 | ≥ 70% | ≥ 70% |  |  |  |  |  |
